Measured values: ChEMBL document CHEMBL1148448, “Fluorinated phenylcyclopropylamines. 1. Synthesis and effect of fluorine substitution at the cyclopropane ring on inhibition of microbial tyramine oxidase” (J Med Chem, 2004)

test system: tyramine oxidase (microbial, copper amine oxidase); assay: Compound was evaluated for inhibition of Microbial tyramine oxidase; ni denotes no inhibition detected at millimolar concentrations; call rule not given here

SMILES	IC50
Cl.NC1(c2ccccc2)CC1F (centres undefined)	Not Active
Cl.NCC[C@@H]1C[C@]1(F)c1ccccc1 (relative stereo)	Not Active
Cl.NC[C@@H]1C[C@]1(F)c1ccccc1 (relative stereo)	Not Active
NC(=O)C1CC1(F)c1ccccc1 (trans isomer)	Not Active
